Reference: PubChem BioAssay (NCI)
Values joined by “and” are separate entries in the source; they are usually repeats but may differ in a detail not shown here. Equal values may be shown once.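 Values below derive from 48-hour exposures of cells grown in 96-well plates, with endpoints linearly interpolated between the two concentrations bracketing the appropriate inhibition level. The concentration for 50% growth inhibition is given as GI50. Definition used: TGI = concentration required for complete inhibition of growth.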

How the values were obtained:
Assay in all cases: inhibition of tumour cell growth, NCI panel, 48 h
786-0 renal = system: 786-0 renal
CCRF-CEM leukemia = system: CCRF-CEM leukemia
COLO 205 colon = system: COLO 205 colon
HCC-2998 colon = system: HCC-2998 colon
NCI/ADR-RES ovarian = system: NCI/ADR-RES ovarian
SF-295 CNS = system: SF-295 CNS
SNB-19 CNS = system: SNB-19 CNS
SNB-75 CNS = system: SNB-75 CNS
UACC-62 melanoma = system: UACC-62 melanoma
UO-31 renal = system: UO-31 renal

Row | SMILES | GI50 (786-0 renal) [µM] | TGI (786-0 renal) | GI50 (CCRF-CEM leukemia) [µM] | TGI (CCRF-CEM leukemia) | GI50 (COLO 205 colon) [µM] | TGI (COLO 205 colon) | GI50 (HCC-2998 colon) [µM] | TGI (HCC-2998 colon) | GI50 (NCI/ADR-RES ovarian) [µM] | TGI (NCI/ADR-RES ovarian) | GI50 (SF-295 CNS) [µM] | TGI (SF-295 CNS) | GI50 (SNB-19 CNS) [µM] | TGI (SNB-19 CNS) | GI50 (SNB-75 CNS) [µM] | TGI (SNB-75 CNS) | GI50 (UACC-62 melanoma) [µM] | TGI (UACC-62 melanoma) | GI50 (UO-31 renal) [µM] | TGI (UO-31 renal)
1 | Cc1[nH]c2ccccc2c1CCCO | > 100 | > 100 µM | > 100 | > 100 µM | > 100 | > 100 µM | > 100 | > 100 µM | > 100 | > 100 µM | > 100 | > 100 µM | > 100 | > 100 µM | > 100 | > 100 µM | > 100 | > 100 µM | 75.2 | > 100 µM
2 | O=C1NNC2(C(=O)N1)c1ccccc1-c1ccccc12 | – | > 10 µM | – | > 10 µM | – | > 10 µM | – | > 10 µM | – | > 10 µM | – | > 10 µM | – | > 10 µM | – | > 10 µM | – | > 10 µM | – | > 10 µM
3 | O=C1/C(=C/c2ccccc2)CN(C(=O)CCN2CCOCC2)C/C1=C\c1ccccc1 | – | 3.98 µM | – | 9.81 µM | – | 7.67 µM | – | 3.68 µM | – | 9.46 µM | – | 6.86 µM | – | 14.5 µM | – | 20 µM | – | 3.52 µM | – | 19.2 µM
4 | Cc1ccccc1OCC(O)CN1CCN(c2ccc(Cl)cc2)CC1 (stereo not drawn) | 17.4 | 32.6 µM | 16.4 | 44.1 µM | 15.7 | 30.3 µM | 16.7 | 31.6 µM | 14.8 | 29.5 µM | 14.4 | 29.6 µM | 17.6 | 35.5 µM | 15.4 | 31 µM | 13.8 | 27.5 µM | 6.75 | 20.8 µM
5 | CC1(C)CC(O)C(C)(C)[C@@H](O)C1 (stereo partly drawn) | – | > 100 µM | – | > 100 µM | – | > 100 µM | – | > 100 µM | – | > 100 µM | – | > 100 µM | – | > 100 µM | – | > 100 µM | – | > 100 µM | – | > 100 µM
6 | C[C@H]1CC[C@@]2(NC1)O[C@H]1C[C@H]3[C@@H]4CC[C@H]5C[C@@H](O)CC[C@]5(C)[C@H]4CC[C@]3(C)[C@H]1[C@@H]2C | 9.23 | 18.7 µM and > 100 µM | 18.3 | 50 µM and > 100 µM | 33.3 | 50 µM and > 100 µM | 9.32 | 22 µM and > 100 µM | 8.71 | 22.4 µM and > 100 µM | 14.8 | 42.9 µM and > 100 µM | – | 50 µM and > 100 µM | 10.9 | 24.7 µM and > 100 µM | 9.42 | 17 µM and > 100 µM | 14.2 | 44.6 µM and > 100 µM
7 | COc1cccc(-c2c[nH]c3c(N/N=C/c4ccncc4)ncnc23)c1 | 1.26 | 18.6 µM | 1.93 | > 25 µM | 1.2 | 4.39 µM | 4.36 | 15.8 µM | 4.54 | > 19.3 µM | 3.5 | > 25 µM | 7.15 | > 25 µM | 1.47 | 6.78 µM | 2.8 | 6.31 µM | 1.75 | > 23.7 µM
8 | COc1cc(C(=O)c2c(-c3ccccc3)oc3c(OC)cccc23)cc(OC)c1OC | 0.073 | 3.1 µM | 0.0532 | > 100 µM | 0.123 | 0.485 µM | 0.211 | > 100 µM | 0.0409 | – | 0.0363 | 1.96 µM | 0.0789 | > 100 µM | 0.0234 | 0.552 µM | 0.0522 | > 96.5 µM | 0.119 | > 100 µM
9 | COc1cc2c(cc1OC)[C@H](C)N1CCc3cc(OC)c(OC)cc3[C@@H]1C2 | – | > 100 µM | – | > 100 µM | – | > 100 µM | – | > 100 µM | – | > 100 µM | – | > 100 µM | – | > 100 µM | – | > 100 µM | – | > 100 µM | – | > 100 µM
10 | Cc1c(C(=O)Nc2ccccc2)sc2ncn(Cc3cccc(Cl)c3)c(=O)c12 | 29.6 | > 100 µM | 22.1 | 97.3 µM | > 100 | > 100 µM | 4.67 | 67.8 µM | 25.7 | > 100 µM | 32.4 | > 100 µM | 30.1 | > 100 µM | 33.3 | > 100 µM | 18.8 | > 100 µM | 13 | 39.7 µM
11 | CSC1=C(N)C(=O)c2[nH]cc(CO)c2C1=N | 1.44 | 3.24 µM | 0.223 | 0.762 µM | 0.0755 | 0.222 µM | 0.173 | 0.338 µM | 0.239 | 0.781 µM | 0.159 | 0.309 µM | 0.155 | 0.295 µM | 0.165 | 0.307 µM | 0.159 | 0.314 µM | 0.154 | 0.295 µM
12 | Cc1ccc(S(=O)(=O)c2c(COC(=O)c3cccc(C)c3)c(-c3ccccc3)nn2C)cc1 | > 100 | > 100 µM | > 100 | > 100 µM | > 100 | > 100 µM | > 100 | > 100 µM | > 100 | > 100 µM | > 100 | > 100 µM | > 100 | > 100 µM | > 100 | > 100 µM | 8.41 | > 100 µM | > 100 | > 100 µM
